Data on 14 compounds can be found in article PMC3623016 (Journal of biomolecular screening, 2012).

Several values for one entry are separate records, joined by “and”; a condition that tells them apart may be missing. Identical values can stand only once. Entries after “also recorded” stand apart in the source; their conditions may differ. Counter-ions that a name gives are not always drawn.

One data set relates to Ig-MXP3 cells. The data set is described as follows: Direct cytotoxicity. The class given is cell-based.
A further data set relates to Igrov1/T8 derived tumors. The data set is described as follows: Preliminary in vivo study, ABCG2 resistant tumors, combination with topotecan. The note with it: for tumor size: intratumoral, daily, 0 to 96 hr, n = 3, p < 0.001. On the set-up: species or system CB-17 SCID mice.
Data set [1] addresses T1, ABCB1 (Homo sapiens, UniProt P08183). As to the kind of experiment: JC-1 efflux inhibition dose-response, flow cytometry, Jurkat-DNR cells. Background: Flow cytometry measures light scatter and fluorescence of single cells or particles in a stream.
The target of data set [2] is T2, ABCG2 (Homo sapiens, UniProt Q9UNQ0).
T2 sequence (Q9UNQ0 1-655): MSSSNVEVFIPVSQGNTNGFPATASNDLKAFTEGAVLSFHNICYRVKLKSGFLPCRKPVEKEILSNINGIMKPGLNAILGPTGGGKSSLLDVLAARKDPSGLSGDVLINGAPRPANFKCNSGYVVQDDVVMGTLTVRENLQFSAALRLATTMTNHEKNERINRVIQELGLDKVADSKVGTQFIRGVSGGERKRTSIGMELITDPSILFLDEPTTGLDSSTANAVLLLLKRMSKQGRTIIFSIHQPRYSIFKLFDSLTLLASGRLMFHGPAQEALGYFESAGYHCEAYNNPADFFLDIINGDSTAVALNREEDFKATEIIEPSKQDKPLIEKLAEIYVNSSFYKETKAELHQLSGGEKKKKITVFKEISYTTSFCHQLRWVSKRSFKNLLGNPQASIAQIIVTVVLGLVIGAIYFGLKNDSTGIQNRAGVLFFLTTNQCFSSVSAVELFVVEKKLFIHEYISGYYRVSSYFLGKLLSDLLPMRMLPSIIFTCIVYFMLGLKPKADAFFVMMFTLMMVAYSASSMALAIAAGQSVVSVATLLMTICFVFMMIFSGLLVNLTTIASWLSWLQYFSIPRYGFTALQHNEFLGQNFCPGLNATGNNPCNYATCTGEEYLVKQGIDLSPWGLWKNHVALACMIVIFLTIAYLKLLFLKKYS
The data set is described as follows: JC-1 efflux inhibition dose-response, flow cytometry, Ig-MXP3 cells. The note with it: for ∼Fold G2 Selective: quotient of average ABCB1 IC50 and average ABCG2 IC50, JC-1 efflux assay. The class given is cell-based.

Data set [3] has as its target T1, ABCB1. As to the kind of experiment: Chemoreversal secondary assay.
Data set [4] deals with T2, ABCG2. The data set is described as follows: Chemoreversal secondary assay.
The test system of data set [5] is drug resistant (ABCG2 expressing) tumor cells. The data set is described as follows: Topotecan killing of drug resistant tumor cells. Conditions: read-out: EC50 resistant cells. Type of data set: cell-based.
Data set [6] has as its system non-resistant (ABCG2 non-expressing) parental tumor cells. The data set is described as follows: Topotecan killing of parental tumor cells. The class given is cell-based. The note with it: read-out: EC50 parental cells.

T1 sequence (P08183 whole entry): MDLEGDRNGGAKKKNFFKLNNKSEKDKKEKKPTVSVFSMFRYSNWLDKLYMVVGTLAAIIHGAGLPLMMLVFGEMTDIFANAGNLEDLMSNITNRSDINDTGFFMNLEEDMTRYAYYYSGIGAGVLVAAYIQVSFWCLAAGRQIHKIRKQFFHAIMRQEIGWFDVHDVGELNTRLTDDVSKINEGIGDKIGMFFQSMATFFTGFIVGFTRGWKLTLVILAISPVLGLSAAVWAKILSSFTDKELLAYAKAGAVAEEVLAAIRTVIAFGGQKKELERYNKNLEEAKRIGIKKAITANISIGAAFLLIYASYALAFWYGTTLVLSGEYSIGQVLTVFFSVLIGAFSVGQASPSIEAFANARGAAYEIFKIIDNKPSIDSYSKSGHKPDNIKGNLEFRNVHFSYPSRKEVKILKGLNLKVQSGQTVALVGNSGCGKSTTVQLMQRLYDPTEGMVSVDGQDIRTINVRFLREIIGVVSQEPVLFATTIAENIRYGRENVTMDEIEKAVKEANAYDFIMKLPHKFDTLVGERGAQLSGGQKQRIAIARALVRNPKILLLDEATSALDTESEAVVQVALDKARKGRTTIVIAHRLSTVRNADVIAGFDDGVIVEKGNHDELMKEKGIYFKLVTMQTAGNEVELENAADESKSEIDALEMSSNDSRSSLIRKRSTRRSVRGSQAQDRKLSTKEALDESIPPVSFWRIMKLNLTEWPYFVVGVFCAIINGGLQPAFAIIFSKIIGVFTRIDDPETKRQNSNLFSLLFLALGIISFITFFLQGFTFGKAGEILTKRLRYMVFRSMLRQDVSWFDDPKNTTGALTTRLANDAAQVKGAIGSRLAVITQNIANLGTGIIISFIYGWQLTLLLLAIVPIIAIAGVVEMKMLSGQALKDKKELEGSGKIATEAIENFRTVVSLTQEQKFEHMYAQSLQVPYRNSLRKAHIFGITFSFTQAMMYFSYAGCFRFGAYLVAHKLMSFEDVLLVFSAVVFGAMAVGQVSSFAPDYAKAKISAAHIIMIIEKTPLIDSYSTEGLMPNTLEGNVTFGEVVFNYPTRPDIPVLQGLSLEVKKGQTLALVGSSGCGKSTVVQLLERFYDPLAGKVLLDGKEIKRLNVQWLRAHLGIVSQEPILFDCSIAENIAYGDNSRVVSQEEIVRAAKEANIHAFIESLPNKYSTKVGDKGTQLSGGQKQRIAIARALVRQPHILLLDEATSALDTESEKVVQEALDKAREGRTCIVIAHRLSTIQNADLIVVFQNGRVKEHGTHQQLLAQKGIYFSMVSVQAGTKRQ

Regarding `O=C(c1ccoc1)N1CCN(c2cc(-c3ccco3)nc3cc(-c4ccccc4)nn23)CC1` [Compound 1], the “ABCB1 TD50” value in the data set with Jurkat-DNR cells amounted to 5.52 µM. Also, in the data set with Ig-MXP3 cells, the “ABCG2 TD50” value was found to be 18.30 µM. Moreover, the tumor size entry in the data set on Igrov1/T8 derived tumors (100 nM of 1 with 150 nM TPT) is “dramatically reduced tumor size; also recorded: Significant tumor reduction”. The EC50 at ABCB1 [1] (read-out: ABCB1 EC50, efflux assay, as worded) was found to be 4.65 µM; at ABCG2 [2] (read-out: ABCG2 EC50, efflux assay, as worded), 0.13 µM. The “higher potency in ABCG2 than Ko143” value at ABCG2 [2] (JC-1 efflux reporter system) was “approximately 100 fold”. For the same compound, the “∼Fold G2 Selective” value on ABCG2 [2] was 36 fold and 35.8 fold.

`CN(C)C(=O)CCSC(SCCC(=O)O)c1cccc(/C=C/c2ccc3ccc(Cl)cc3n2)c1` (stereo not drawn) [Compound 5, MK571, reference compound]: the EC50 at ABCB1 [3] amounted to 20.4 µM; on ABCG2 [4], 57.4 µM. Also, the IC50 against ABCB1 [1] and against ABCG2 [2] was greater than 50 µM each time.

Consider `Cc1nc2cc(-c3cccc(F)c3)nn2c(N2CCN(C(=O)c3ccco3)CC2)c1C` [Compound 7], for which the tumor size entry in the data set on Igrov1/T8 derived tumors (500 nM of 7 with 150 nM TPT) is listed as “dramatically reduced tumor size; also recorded: Significant tumor reduction”.

On to `COc1cccc(C(=O)N2CCN(c3cc(-c4ccccc4)nc4cc(-c5cccc(Cl)c5)nn34)CC2)c1` [Compound 15], for which the “ABCB1 TD50” value in the data set with Jurkat-DNR cells is greater than 100 µM. For the same compound, the “ABCG2 TD50” value with Ig-MXP3 cells was greater than 100 µM. Besides, the “∼Fold G2 Selective” value on ABCG2 [2] is listed as 0.6 fold.

As to `O=C(c1cccnc1)N1CCN(c2cc(-c3ccccc3)nc3cc(-c4cccc(Cl)c4)nn23)CC1` [Compound 20], the “ABCB1 TD50” value in the data set with Jurkat-DNR cells is 4.72 µM. The “ABCG2 TD50” value in the data set on Ig-MXP3 cells came out at 10.30 µM. Also, the “∼Fold G2 Selective” value at ABCG2 [2] came to 2.5 fold.

Turning to `O=C(c1ccncc1)N1CCN(c2cc(-c3ccccc3)nc3cc(-c4cccc(Cl)c4)nn23)CC1` [Compound 21], in the data set with Jurkat-DNR cells, the “ABCB1 TD50” value stood at 10.90 µM. For the same compound, in the data set with Ig-MXP3 cells, the “ABCG2 TD50” value is 28.30 µM. The “∼Fold G2 Selective” value on ABCG2 [2] is 1.1 fold.

For `O=C(Cc1ccccc1)N1CCN(c2cc(-c3ccccc3)nc3cc(-c4cccc(Cl)c4)nn23)CC1` [Compound 24], the “ABCB1 TD50” value with Jurkat-DNR cells was determined as 17.80 µM. Moreover, the “ABCG2 TD50” value with Ig-MXP3 cells is greater than 100 µM. Also, at ABCG2 [2], the “∼Fold G2 Selective” value is 0.8 fold.

Consider `O=C(c1ccoc1)N1CCN(c2cc(-c3cccnc3)nc3cc(-c4cccc(Cl)c4)nn23)CC1` [Compound 30], for which, in the data set with Jurkat-DNR cells, the “ABCB1 TD50” value worked out at 5.33 µM. Also, the “ABCG2 TD50” value in the data set on Ig-MXP3 cells was 5.77 µM. The “∼Fold G2 Selective” value at ABCG2 [2] is on record as 2.9 fold.

In the case of `O=C(c1ccoc1)N1CCN(c2cc(-c3ccncc3)nc3cc(-c4cccc(Cl)c4)nn23)CC1` [Compound 31], in the data set with Jurkat-DNR cells, the “ABCB1 TD50” value amounted to 13.50 µM. For the same compound, the “ABCG2 TD50” value in the data set with Ig-MXP3 cells is 57.80 µM. The “∼Fold G2 Selective” value on ABCG2 [2] was 2.5 fold.

For the compound `COc1ccccc1-c1cc2nc(-c3ccccc3)cc(N3CCN(C(=O)c4ccoc4)CC3)n2n1` [Compound 34], in the data set with Jurkat-DNR cells, the “ABCB1 TD50” value is 4.37 µM. Moreover, the “ABCG2 TD50” value in the data set with Ig-MXP3 cells stood at 6.50 µM. The “∼Fold G2 Selective” value at ABCG2 [2] is 4.8 fold.

`COc1ccc(-c2cc3nc(-c4ccccc4)cc(N4CCN(C(=O)c5ccoc5)CC4)n3n2)cc1` [Compound 36]: in the data set with Jurkat-DNR cells, the “ABCB1 TD50” value turned out to be 5.54 µM. In addition, the “ABCG2 TD50” value in the data set with Ig-MXP3 cells was greater than 100 µM. The “∼Fold G2 Selective” value on ABCG2 [2] is recorded as 1.2 fold.

Take `COc1ccccc1-c1cc(N2CCN(C(=O)c3ccoc3)CC2)n2nc(-c3ccccc3)cc2n1` [Compound 44]: the “ABCB1 TD50” value in the data set with Jurkat-DNR cells was determined as 3.73 µM. The “ABCG2 TD50” value with Ig-MXP3 cells turned out to be 7.62 µM. Further, the “∼Fold G2 Selective” value on ABCG2 [2] came out at 1.2 fold.

Turning to `COc1cccc(-c2cc(N3CCN(C(=O)c4ccoc4)CC3)n3nc(-c4ccccc4)cc3n2)c1` [Compound 65], in the data set with Jurkat-DNR cells, the “ABCB1 TD50” value is 5.77 µM. In addition, in the data set with Ig-MXP3 cells, the “ABCG2 TD50” value amounted to 67.80 µM. Further, the “∼Fold G2 Selective” value at ABCG2 [2] was 83 fold.

With `CC[C@@]1(O)C(=O)OCc2c1cc1n(c2=O)Cc2cc3c(CN(C)C)c(O)ccc3nc2-1` [TPT, topotecan hydrochloride hydrate], the figures for the concentration giving a half-maximal response (EC50) in [5] and in [6] were 0.311 µM and 0.007 µM, respectively. Moreover, in the data set with Igrov1/T8 derived tumors (150 nM TPT alone, intratumoral (data not shown)), the growth of tumors entry is listed as “did not affect the growth of tumors”.

One may read the EC50 as the midpoint of the concentration-response curve. A word on the IC50: it is the point on the concentration scale where inhibition reaches its midpoint.
